Measurements as given in patent US10689343B2, “Inhibitors of tryptophan 2,3-dioxygenase” (NETHERLANDS TRANSLATIONAL RESEARCH CENTER B.V., priority 2016, dated 2020).
Several values for one entry are separate records, joined by “and”; a condition that tells them apart may be missing. Equal entries are not always repeated. Where two headings read alike, the source gives them in different places.

Key:
[1] = molecular target: T1, TDO in SW48 colorectal carcinoma cells (Homo sapiens, UniProt P48775); assay: Cell-based assay for TDO in SW48 colorectal carcinoma cells (NFK GreenScreen); conditions: 18 hours with L-tryptophan
T1 construct: Endogenous expression of TDO has been determined in a variety of cancer cell lines; host or cells: SW48 colorectal carcinoma cells
T1 sequence (P48775 whole entry): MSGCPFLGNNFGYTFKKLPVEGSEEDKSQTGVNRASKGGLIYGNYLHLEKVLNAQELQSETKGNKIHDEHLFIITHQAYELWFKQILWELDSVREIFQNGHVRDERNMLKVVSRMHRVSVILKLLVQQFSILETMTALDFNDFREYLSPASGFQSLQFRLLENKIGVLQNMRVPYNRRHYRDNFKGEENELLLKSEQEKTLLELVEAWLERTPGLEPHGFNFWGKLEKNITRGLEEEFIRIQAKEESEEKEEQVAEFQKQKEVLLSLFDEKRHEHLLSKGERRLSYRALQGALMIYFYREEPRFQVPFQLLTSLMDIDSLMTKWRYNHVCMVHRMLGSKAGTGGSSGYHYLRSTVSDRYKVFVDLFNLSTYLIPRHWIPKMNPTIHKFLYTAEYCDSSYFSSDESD
Method: The biological activity of TDO inhibitors can be measured by applying above detection methods to cells that are treated with test compound. Endogenous expression of TDO has been determined in a variety of cancer cell lines (Pilotte et al.; Seegers, et al.), or TDO can be expressed in cells that lack endogenous TDO by transfection of an expression vector containing TDO cDNA. […] A preferred assay is the cell-based NFK GreenScreen™ assay (Seegers et al, supra), which measures the cellular inhibitory activity of compounds on TDO. […] No. V9920). Cell-Based Assay for TDO The NFK GreenScreen™ assay technology was also used to determine the inhibitory activity of compounds on TDO in SW48 colorectal carcinoma cells (Seegers, N., et al., J. Biol. Screen. 19: 1266; 2014). […] Compounds were dissolved in DMSO and diluted in RPMI 1640. Final DMSO concentration in the assay was 0.4% (v/v). Eight thousand cells per well in 40 μl were seeded in a black 384-well tissue plate (cat. No. 781086; […] To determine NFK levels, 12 μl NFK Green™ (NTRC, Oss, The Netherlands) was added to each well, and the plate was sealed and incubated for 4 hours at 37° C. Fluorescence was measured on an EnVision multimode reader (Perkin Elmer, Waltham, Mass., USA).

[2] = molecular target: T2, Recombinant TDO (Homo sapiens, UniProt P48775); assay: Biochemical assay for TDO (NFK GreenScreen); conditions: 50 nM TDO, 200 μM L-tryptophan
T2 construct: Recombinant TDO (Seegers, N., et al.) and all other assay components were diluted in TDO reaction buffer
T2 sequence (P48775 whole entry): as above
Method: Biochemical Assay for TDO
The NFK GreenScreen™ assay technology was also used to determine the inhibitory activity of compounds on TDO (Seegers, N., et al., J. Biol. Screen. 19: 1266; 2014). Compounds were serially diluted in DMSO and finally in TDO reaction buffer, consisting of 100 mM NaH2PO4, pH 7.0, supplemented with 0.02% Tween-20 (cat. No. P7949; Sigma Aldrich). Recombinant TDO (Seegers, N., et al.) and all other assay components were diluted in TDO reaction buffer. 10 μl of compound solution and 20 μl of enzyme solution supplemented with 200 μM ascorbic acid were combined in the well of a black 384-well plate (cat. no. 3573; Corning, Corning, N.Y., USA), and incubated for 60 min at room temperature. Subsequently, 10 μl of 0.8 mM of the substrate L-tryptophan was added, i.e., the final concentration of L-tryptophan was 200 μM. The DMSO concentration in the assay was 0.3%. The concentration of TDO was 50 nM. Incubation was continued for 15 min at room temperature. Then, 10 μl of NFK Green™ (NTRC, Oss, The Netherlands) was added, the plate was sealed, and the reaction was developed for 3 hours at 37° C. To determine the production of N-formyl kynurenine (NFK), the seal was removed and fluorescence was read on an EnVision multimode reader (Perkin Elmer, Waltham, Mass., USA). IC50 were calculated using XLfit™ software (ID Business Solutions, Ltd., Surrey, U.K.).

[3] = molecular target: CYP2D6 (Homo sapiens, UniProt P10635); assay: P450-Glo CYP2D6 Luc-IP assay
Chain of CYP2D6 (P10635 whole entry): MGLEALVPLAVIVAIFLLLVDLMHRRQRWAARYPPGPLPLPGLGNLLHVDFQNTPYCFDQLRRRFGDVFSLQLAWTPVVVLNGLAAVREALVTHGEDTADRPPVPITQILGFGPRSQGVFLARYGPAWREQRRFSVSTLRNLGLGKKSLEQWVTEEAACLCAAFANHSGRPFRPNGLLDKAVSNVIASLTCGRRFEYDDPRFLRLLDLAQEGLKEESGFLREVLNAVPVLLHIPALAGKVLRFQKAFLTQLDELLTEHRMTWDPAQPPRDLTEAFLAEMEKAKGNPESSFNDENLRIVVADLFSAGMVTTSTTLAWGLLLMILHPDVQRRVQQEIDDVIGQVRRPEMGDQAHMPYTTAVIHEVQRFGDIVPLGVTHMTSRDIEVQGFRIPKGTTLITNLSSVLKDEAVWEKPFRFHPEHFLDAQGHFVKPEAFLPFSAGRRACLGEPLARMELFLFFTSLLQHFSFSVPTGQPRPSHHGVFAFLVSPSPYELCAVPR

[4] = molecular target: CYP3A4 (Homo sapiens, UniProt P08684); assay: P450-Glo CYP3A4 luciferin isopropylacetal (Luc-IP) assay
Chain of CYP3A4 (P08684 whole entry): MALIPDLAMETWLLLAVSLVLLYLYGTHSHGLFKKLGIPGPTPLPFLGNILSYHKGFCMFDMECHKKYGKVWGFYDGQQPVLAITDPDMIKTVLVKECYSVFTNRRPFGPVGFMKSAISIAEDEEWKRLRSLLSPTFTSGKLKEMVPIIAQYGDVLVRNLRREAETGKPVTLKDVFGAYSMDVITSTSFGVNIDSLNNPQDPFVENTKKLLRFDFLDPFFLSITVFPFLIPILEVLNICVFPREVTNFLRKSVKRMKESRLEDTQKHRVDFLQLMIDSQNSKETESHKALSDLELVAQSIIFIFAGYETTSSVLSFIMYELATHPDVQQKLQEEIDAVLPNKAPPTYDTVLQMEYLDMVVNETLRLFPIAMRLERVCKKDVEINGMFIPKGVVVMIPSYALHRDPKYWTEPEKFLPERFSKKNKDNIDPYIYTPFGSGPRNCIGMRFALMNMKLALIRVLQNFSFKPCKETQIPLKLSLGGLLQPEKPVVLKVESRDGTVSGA

CN1CCN(CCCNC(=O)c2ccc(-c3c[nH]c4cc(F)ccc34)cc2)CC1 [Example 135, 4-(6-Fluoro-1H-indol-3-yl)-N-[3-(4-methylpiperazin-1-yl)propyl]benzamide] was tested, and the IC50 ([1]; read-out: IC50 on TDO in cells) was ≤ 200 nM, the IC50 [2] was < 1000 nM and the IC50 [3] was > 10 µM. It also gave an IC50 [4] of 5 to 10 µM.
With O=C(Nc1ccc(-c2c[nH]c3cc(F)ccc23)cc1)[C@@H]1CCCNC1 [Example 131, (3R)—N-[4-(6-fluoro-1H-indol-3-yl)phenyl]piperidine-3-carboxamide] the IC50 ([1]; read-out: IC50 on TDO in cells) was ≤ 500 nM and 200 to 500 nM, the IC50 [2] was < 1000 nM and the IC50 [3] was > 10 µM. For the same compound, the IC50 [4] was > 10 µM.
With CN(C)CC(O)CNC(=O)c1ccc(-c2c[nH]c3cc(F)ccc23)cc1 (stereo not drawn) [Example 78, N-[3-(dimethylamino)-2-hydroxy-propyl]-4-(6-fluoro-1H-indol-3-yl)benzamide] the IC50 ([1]; read-out: IC50 on TDO in cells) was ≤ 200 nM, the IC50 [2] was < 1000 nM and the IC50 [3] was > 10 µM. For the same compound, the IC50 [4] was > 10 µM.
CC(=O)N1CCCC(NC(=O)c2ccc(-c3c[nH]c4cc(F)ccc34)cc2)C1 (stereo not drawn) [Example 119, N-(1-acetyl-3-piperidyl)-4-(6-fluoro-1H-indol-3-yl)benzamide] was tested, and the IC50 ([1]; read-out: IC50 on TDO in cells) was ≤ 500 nM and 200 to 500 nM, the IC50 [2] was 1000 to 5000 nM and the IC50 [3] was > 10 µM. For the same compound, the IC50 [4] was 5 to 10 µM.
For N[C@H]1CC[C@@H](C(=O)Nc2ccc(-c3c[nH]c4cc(F)ccc34)cc2)C1 [Example 106, (1R,3S)-3-amino-N-[4-(6-fluoro-1H-indol-3-yl)phenyl]cyclopentanecarboxamide], the IC50 ([1]; read-out: IC50 on TDO in cells) was ≤ 500 nM and 200 to 500 nM, the IC50 [2] was < 1000 nM and the IC50 [3] was > 10 µM. For the same compound, the IC50 [4] was 5 to 10 µM.
In the case of O=C(NC[C@@H]1CCNC1)c1ccc(-c2c[nH]c3cc(F)ccc23)cc1 [Example 95, 4-(6-Fluoro-1H-indol-3-yl)-N-[[(3R)-pyrrolidin-3-yl]methyl]benzamide], the IC50 ([1]; read-out: IC50 on TDO in cells) is reported as ≤ 500 nM and 200 to 500 nM, the IC50 [2] is reported as < 1000 nM and the IC50 [3] is reported as > 10 µM. For the same compound, the IC50 [4] was > 10 µM.
CC(=O)Nc1ccc(-c2c[nH]c3cc(F)ccc23)cc1 [Example 4, N-[4-(6-Fluoro-1H-indol-3-yl)phenyl]acetamide] was tested, and the IC50 ([1]; read-out: IC50 on TDO in cells) was ≤ 500 nM and 200 to 500 nM, the IC50 [2] was < 1000 nM and the IC50 [3] was > 10 µM. For the same compound, the IC50 [4] was > 10 µM.
In the case of O=C(CC1CNCCO1)Nc1ccc(-c2c[nH]c3cc(F)ccc23)cc1 (stereo not drawn) [Example 102, N-[4-(6-fluoro-1H-indol-3-yl)phenyl]-2-morpholin-2-yl-acetamide], the IC50 ([1]; read-out: IC50 on TDO in cells) is reported as ≤ 500 nM and 200 to 500 nM, the IC50 [2] is reported as < 1000 nM and the IC50 [3] is reported as > 10 µM. It also gave an IC50 [4] of 5 to 10 µM.
In the case of C[C@@H](CO)NC(=O)c1ccc(-c2c[nH]c3cc(F)ccc23)cc1 [Example 15, 4-(6-fluoro-1H-indol-3-yl)-N-[(1S)-2-hydroxy-1-methyl-ethyl]benzamide], the IC50 ([1]; IC50 on TDO in cells) is reported as ≤ 200 nM, the IC50 [2] is reported as < 1000 nM and the IC50 [3] is reported as > 10 µM. The IC50 [4] was > 10 µM.
With CC(C)[C@@H](CO)NC(=O)c1ccc(-c2c[nH]c3cc(F)ccc23)cc1 [Example 3, 4-(6-Fluoro-1H-indol-3-yl)-N-[(1S)-1-(hydroxymethyl)-2-methyl-propyl]benzamide] the IC50 ([1]; read-out: IC50 on TDO in cells) was ≤ 500 nM and 200 to 500 nM, the IC50 [2] was < 1000 nM and the IC50 [3] was > 10 µM. For the same compound, the IC50 [4] was > 10 µM.
In the case of O=C(NCC(F)(F)F)c1ccc(-c2c[nH]c3cc(F)ccc23)cc1Cl [Example 53, 2-Chloro-4-(6-fluoro-1H-indol-3-yl)-N-(2,2,2-trifluoroethyl)benzamide], the IC50 ([1]; read-out: IC50 on TDO in cells) is reported as ≤ 500 nM and 200 to 500 nM, the IC50 [2] is reported as < 1000 nM and the IC50 [3] is reported as > 10 µM. The IC50 [4] was > 10 µM.
For O=C(NCC(F)(F)F)c1c(F)cc(-c2c[nH]c3cc(F)ccc23)cc1F [Example 57, 2,6-Difluoro-4-(6-fluoro-1H-indol-3-yl)-N-(2,2,2-trifluoroethyl)benzamide], the IC50 ([1]; read-out: IC50 on TDO in cells) was ≤ 500 nM and 200 to 500 nM, the IC50 [2] was < 1000 nM and the IC50 [3] was 5 to 10 µM. For the same compound, the IC50 [4] was 5 to 10 µM.
